# How the values were obtained:
# Format in all cases: in vivo
# [1] = tested on: Echinochloa crus-galli (ECHCG); assay: Pre-emergence herbicidal activity (B1); conditions: 1000 g/ha, evaluated after 13 days, 5=total damage to plant, 0=no damage to plant
# Experimental: (§1) B1 Pre-Emergence Herbicidal Activity Seeds of a variety of test species were sown in standard soil in pots: Triticum aestivium (TRZAW), Avena fatua (AVEFA), Alopecurus myosuroides (ALOMY), Echinochloa crus-galli (ECHCG), Lolium perenne (LOLPE), Zea Mays (ZEAMX), Abutilon theophrasti (ABUTH), Amaranthus retroflexus (AMARE) and Setaria faberi (SETFA). After cultivation for one day (pre-emergence) under controlled conditions in a glasshouse (at 24/16° C., day/night; 14 hours light; 65% humidity), the plants were sprayed with an aqueous spray solution derived from the formulation of the technical active ingredient in acetone/water (50:50) solution containing 0.5% Tween 20 (polyoxyethelyene sorbitan monolaurate, CAS RN 9005-64-5). The test plants were then grown in a glasshouse under controlled conditions (at 24/16° C., day/night; 14 hours light; 65% humidity) and watered twice daily. After 13 days, the test was evaluated (5=total damage to plant; 0=no damage to plant). Tables B1a and B1b Control of Weed Species by Compound of Formula (I) after Pre-Emergence Application
# [2] = tested on: Amaranthus retroflexus (AMARE); assay: Pre-emergence herbicidal activity (B1); conditions: Test 1b, 1000 g/ha, evaluated after 13 days, 5=total damage to plant, 0=no damage to plant
# Experimental: as §1
# Lolium perenne (LOLPE) [3] = assay: Pre-emergence herbicidal activity (B1); conditions: 1000 g/ha, evaluated after 13 days, 5=total damage to plant, 0=no damage to plant
# Experimental: as §1
# Zea Mays (ZEAMX) [4] = assay: Pre-emergence herbicidal activity (B1); conditions: Test 1b, 1000 g/ha, evaluated after 13 days, 5=total damage to plant, 0=no damage to plant
# Experimental: as §1
# Setaria faberi (SETFA) [5] = assay: Pre-emergence herbicidal activity (B1); conditions: 1000 g/ha, evaluated after 13 days, 5=total damage to plant, 0=no damage to plant
# Experimental: as §1
# [6] = tested on: Abutilon theophrasti (ABUTH); assay: Pre-emergence herbicidal activity (B1); conditions: Test 1b, 1000 g/ha, evaluated after 13 days, 5=total damage to plant, 0=no damage to plant
# Experimental: as §1
# [7] = tested on: Echinochloa crus-galli (ECHCG); assay: Post-emergence herbicidal activity (B2); conditions: 1000 g/ha, evaluated after 13 days, 5=total damage to plant, 0=no damage to plant
# Experimental: (§2) B2 Post-Emergence Herbicidal Activity Seeds of a variety of test species were sown in standard soil in pots: Triticum aestivium (TRZAW), Avena fatua (AVEFA), Alopecurus myosuroides (ALOMY), Echinochloa crus-galli (ECHCG), Lolium perenne (LOLPE), Zea Mays (ZEAMX), Abutilon theophrasti (ABUTH), Amaranthus retroflexus (AMARE) and Setaria faberi (SETFA). After 8 days cultivation (post-emergence) under controlled conditions in a glasshouse (at 24/16° C., day/night; 14 hours light; 65% humidity), the plants were sprayed with an aqueous spray solution derived from the formulation of the technical active ingredient in acetone/water (50:50) solution containing 0.5% Tween 20 (polyoxyethelyene sorbitan monolaurate, CAS RN 9005-64-5). The test plants were then grown in a glasshouse under controlled conditions (at 24/16° C., day/night; 14 hours light; 65% humidity) and watered twice daily. After 13 days, the test was evaluated (5=total damage to plant; 0=no damage to plant). Tables B2a and B2b Control of Weed Species by Compound of Formula (I) after Post-Emergence Application
# [8] = tested on: Amaranthus retroflexus (AMARE); assay: Post-emergence herbicidal activity (B2); conditions: Test B2b, 1000 g/ha, evaluated after 13 days, 5=total damage to plant, 0=no damage to plant
# Experimental: as §2
# Lolium perenne (LOLPE) [9] = assay: Post-emergence herbicidal activity (B2); conditions: 1000 g/ha, evaluated after 13 days, 5=total damage to plant, 0=no damage to plant
# Experimental: as §2
# Zea Mays (ZEAMX) [10] = assay: Post-emergence herbicidal activity (B2); conditions: Test B2b, 1000 g/ha, evaluated after 13 days, 5=total damage to plant, 0=no damage to plant
# Experimental: as §2
# Setaria faberi (SETFA) [11] = assay: Post-emergence herbicidal activity (B2); conditions: 1000 g/ha, evaluated after 13 days, 5=total damage to plant, 0=no damage to plant
# Experimental: as §2
# [12] = tested on: Abutilon theophrasti (ABUTH); assay: Post-emergence herbicidal activity (B2); conditions: Test B2b, 1000 g/ha, evaluated after 13 days, 5=total damage to plant, 0=no damage to plant
# Experimental: as §2
# [13] = tested on: Alopecurus myosuroides (ALOMY); assay: Pre-emergence herbicidal activity (B1); conditions: Test 1a, 1000 g/ha, evaluated after 13 days, 5=total damage to plant, 0=no damage to plant
# Experimental: as §1
# Avena fatua (AVEFA) [14] = assay: Pre-emergence herbicidal activity (B1); conditions: Test 1a, 1000 g/ha, evaluated after 13 days, 5=total damage to plant, 0=no damage to plant
# Experimental: as §1
# [15] = tested on: Alopecurus myosuroides (ALOMY); assay: Post-emergence herbicidal activity (B2); conditions: Test B2a, 1000 g/ha, evaluated after 13 days, 5=total damage to plant, 0=no damage to plant
# Experimental: as §2
# [16] = tested on: Triticum aestivium (TRZAW); assay: Post-emergence herbicidal activity (B2); conditions: Test B2a, 1000 g/ha, evaluated after 13 days, 5=total damage to plant, 0=no damage to plant
# Experimental: as §2
# Avena fatua (AVEFA) [17] = assay: Post-emergence herbicidal activity (B2); conditions: Test B2a, 1000 g/ha, evaluated after 13 days, 5=total damage to plant, 0=no damage to plant
# Experimental: as §2
Compound,ECHCG damage score ([1]; Test 1b),AMARE damage score [2],LOLPE damage score (Lolium perenne (LOLPE) [3]; Test 1b),ZEAMX damage score (Zea Mays (ZEAMX) [4]),SETFA damage score (Setaria faberi (SETFA) [5]; Test 1b),ABUTH damage score [6],ECHCG damage score ([7]; Test B2b),AMARE damage score [8],LOLPE damage score (Lolium perenne (LOLPE) [9]; Test B2b),ZEAMX damage score (Zea Mays (ZEAMX) [10]),SETFA damage score (Setaria faberi (SETFA) [11]; Test B2b),ABUTH damage score [12],further results
COC(=O)CNc1ccc(-c2cncc(F)c2)nc1C(F)(F)F [Compound A22],4,3,2,5,4,0,5,3,4,5,5,2,
Fc1cncc(-c2ccc(NCc3ccc(Cl)cc3)c(C(F)(F)F)n2)c1 [Compound A24],2,0,1,3,4,0,3,0,2,5,5,0,
C=CCNc1ccc(-c2cncc(F)c2)nc1C(F)(F)F [Compound A25],4,1,2,5,4,0,4,2,3,5,5,0,
Fc1cncc(-c2ccc(NCc3ccc(C(F)(F)F)cc3)c(C(F)(F)F)n2)c1 [Compound A26],2,0,0,2,4,0,3,0,2,5,4,0,
CCNc1ccc(-c2cncc(F)c2)nc1C(F)(F)F [Compound A27],5,0,2,5,4,0,4,0,4,5,5,0,
Fc1cncc(-c2ccc(NCc3ccc(F)cc3F)c(C(F)(F)F)n2)c1 [Compound A28],2,0,0,2,4,0,3,1,2,5,5,0,
Fc1cncc(-c2ccc(NCC3CC3)c(C(F)(F)F)n2)c1 [Compound A29],4,3,3,5,5,1,5,2,4,5,5,2,
CC#CCNc1ccc(-c2cncc(F)c2)nc1C(F)(F)F [Compound A30],4,2,2,5,5,0,5,2,4,5,5,2,
Fc1ccc(CNc2ccc(-c3cncc(F)c3)nc2C(F)(F)F)cc1 [Compound A31],4,1,2,4,5,1,4,1,3,5,5,0,
"Fc1cncc(-c2ccc(Nc3ccccc3)c(C(F)(F)F)n2)c1 [Compound A32, 6-(5-fluoro-3-pyridyl)-N-phenyl-2-(trifluoromethyl)pyridin-3-amine]",4,1,1,1,5,1,4,0,3,4,5,0,
"Nc1ccc(-c2cncc(F)c2)nc1C(F)(F)F [Compound A33, 6-(5-fluoro-3-pyridyl)-2-(trifluoromethyl)pyridin-3-amine]",2,1,2,4,4,0,3,2,3,5,5,1,
CNc1ccc(-c2cncnc2)nc1C(F)(F)F [Compound A34],4,1,3,4,4,0,5,2,3,5,5,1,
"Nc1ccc(-c2cncnc2)nc1C(F)(F)F [Compound A35, 6-pyrimidin-5-yl-2-(trifluoromethyl)pyridin-3-amine]",3,1,2,5,4,0,4,2,4,5,5,1,
Cc1nc(-c2cccnc2)ccc1N [Compound A36],0,1,0,0,1,1,1,1,1,2,2,0,
Fc1cncc(-c2ccc(NC3CCCCC3)c(C(F)(F)F)n2)c1 [Compound A45],,,,,,,,,,,,,ECHCG damage score ([1]; Test 1a): 3; LOLPE damage score (Lolium perenne (LOLPE) [3]; Test 1a): 0; ALOMY damage score [13]: 0; SETFA damage score (Setaria faberi (SETFA) [5]; Test 1a): 4; AVEFA damage score (Avena fatua (AVEFA) [14]): 1; ECHCG damage score ([7]; Test B2a): 2; LOLPE damage score (Lolium perenne (LOLPE) [9]; Test B2a): 1; ALOMY damage score [15]: 0; TRAZW damage score [16]: 0; SETFA damage score (Setaria faberi (SETFA) [11]; Test B2a): 4; AVEFA damage score (Avena fatua (AVEFA) [17]): 2

# From patent publication US10986838B2, “Herbicides” (SYNGENTA PARTICIPATIONS AG, priority 2016, dated 2021)
